By Ki is commonly meant the equilibrium dissociation constant of an inhibitor or competing ligand from its target.

The target in test [1] is 5-hydroxytryptamine receptor 2B (Homo sapiens, UniProt P41595). The test is described as follows: Displacement of [3H]LSD from 5-HT2B receptor (unknown origin) assessed as inhibition constant incubated for 90 mins by MicroBeta scintillation counting method.
Test [2] addresses T1, 5-hydroxytryptamine receptor 2C (Homo sapiens, UniProt P28335).
T1 sequence (P28335 whole entry): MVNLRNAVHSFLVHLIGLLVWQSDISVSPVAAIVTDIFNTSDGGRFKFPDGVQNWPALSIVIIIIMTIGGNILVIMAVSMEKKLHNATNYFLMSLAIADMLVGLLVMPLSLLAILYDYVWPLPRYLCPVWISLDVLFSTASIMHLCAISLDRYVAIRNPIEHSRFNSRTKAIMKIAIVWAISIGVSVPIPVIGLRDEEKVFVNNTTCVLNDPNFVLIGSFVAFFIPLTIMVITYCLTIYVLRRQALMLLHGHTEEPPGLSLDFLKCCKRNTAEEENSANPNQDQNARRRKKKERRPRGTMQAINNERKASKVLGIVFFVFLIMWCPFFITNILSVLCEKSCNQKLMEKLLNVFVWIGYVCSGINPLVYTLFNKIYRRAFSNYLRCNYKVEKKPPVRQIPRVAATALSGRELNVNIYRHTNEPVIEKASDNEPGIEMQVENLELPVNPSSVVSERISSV
The test is described as follows: Displacement of [3H]Mesulergine from 5-HT2C receptor (unknown origin) assessed as inhibition constant incubated for 90 mins by MicroBeta scintillation counting method. For orientation: Loss of bound radioactivity is the signal in a displacement assay; it reports binding, not function.

Test [3] addresses Serotonin 2 receptors; 5-HT2a & 5-HT2c (Homo sapiens) (UniProt P28223+P28335). The test is described as follows: Selectivity ratio of Ki for 5-HT2A receptor (unknown origin) to Ki for 5-HT2C receptor (unknown origin). The format is protein assay.
The species entered for test [4] is Homo sapiens. The test is described as follows: Selectivity ratio of Ki for 5-HT2B receptor (unknown origin) to Ki for 5-HT2C receptor (unknown origin).
The species entered for test [5] is Homo sapiens. As to the kind of experiment: Selectivity ratio of Ki for 5-HT2A receptor (unknown origin) to Ki for 5-HT2B receptor (unknown origin).

Chain of Serotonin 2 receptors; 5-HT2a & 5-HT2c (Homo sapiens) (P28223 whole entry, looked up, one chain of several): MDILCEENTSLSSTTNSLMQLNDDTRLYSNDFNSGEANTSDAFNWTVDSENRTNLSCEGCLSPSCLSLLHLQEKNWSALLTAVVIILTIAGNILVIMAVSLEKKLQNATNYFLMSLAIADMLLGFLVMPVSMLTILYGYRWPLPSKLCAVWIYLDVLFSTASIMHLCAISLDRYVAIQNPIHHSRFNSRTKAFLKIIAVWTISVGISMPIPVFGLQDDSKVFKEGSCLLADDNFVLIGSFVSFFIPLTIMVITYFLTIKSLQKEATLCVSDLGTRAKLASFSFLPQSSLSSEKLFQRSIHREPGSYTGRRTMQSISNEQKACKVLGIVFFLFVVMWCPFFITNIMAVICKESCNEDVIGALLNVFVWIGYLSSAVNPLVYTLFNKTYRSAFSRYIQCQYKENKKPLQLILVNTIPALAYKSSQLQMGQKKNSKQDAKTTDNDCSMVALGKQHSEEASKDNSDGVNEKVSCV
Chain of 5-hydroxytryptamine receptor 2B (P41595 whole entry): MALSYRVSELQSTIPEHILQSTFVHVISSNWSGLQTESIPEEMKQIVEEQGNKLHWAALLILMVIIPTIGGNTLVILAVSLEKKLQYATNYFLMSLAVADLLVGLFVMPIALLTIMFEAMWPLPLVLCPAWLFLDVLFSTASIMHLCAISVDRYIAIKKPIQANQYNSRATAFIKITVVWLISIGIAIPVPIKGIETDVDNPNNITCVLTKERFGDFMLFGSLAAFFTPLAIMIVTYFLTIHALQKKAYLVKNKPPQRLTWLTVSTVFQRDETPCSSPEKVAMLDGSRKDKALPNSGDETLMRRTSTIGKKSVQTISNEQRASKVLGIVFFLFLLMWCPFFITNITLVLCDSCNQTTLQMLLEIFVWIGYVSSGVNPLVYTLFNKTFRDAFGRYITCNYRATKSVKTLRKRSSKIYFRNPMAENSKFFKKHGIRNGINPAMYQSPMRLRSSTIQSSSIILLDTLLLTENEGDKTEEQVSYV

As for `CCC(C)Oc1cc2c(cc1OC)-c1c(OC)c(OC)cc3c1[C@H](C2)N(C)CC3` (stereo not given in full), the Ki in test [1] was 22 nM; in test [2] it was 238 nM. Besides, the results for the Ratio Ki (in test [3]; in the test listed under Homo sapiens [4]; in the test filed under Homo sapiens [5]) were 1.6, 0.1 and 17.1, respectively.
Take `CCCC(C)Oc1cc2c(cc1OC)-c1c(OC)c(OC)cc3c1[C@H](C2)N(C)CC3` (stereo not given in full): the inhibition constant Ki in test [1] came out at 10 nM; in test [2] it was 219 nM. The Ratio Ki is 1.1 in test [3], 0.05 in the test listed under Homo sapiens [4] and 24.4 in the test listed under Homo sapiens [5].
Taken in the same sequence, the figures for `COc1cc2c(cc1OCc1ccccc1)C[C@H]1c3c(cc(OC)c(OC)c3-2)CCN1C` were 192 nM, 179 nM, 1.2, 1.1 and 1.1.
Taken in the same sequence, the figures for `CCCCOc1cc2c(cc1OC)-c1c(OC)c(OC)cc3c1[C@H](C2)N(C)CC3` were 56 nM, 450 nM, 0.6, 0.1 and 4.8.
Taken in the same sequence, the figures for `COc1cc2c(cc1OCC1CC1)C[C@H]1c3c(cc(OC)c(OC)c3-2)CCN1C` were 29 nM, 533 nM, 1.1, 0.05 and 20.1.
On to `CCOc1cc2c(cc1OC)-c1c(OC)c(OC)cc3c1[C@H](C2)N(C)CC3`, for which the Ki was found to be 80 nM in test [1] and 425 nM in test [2]. Besides, the Ratio Ki in test [3] was 1.9; in the test listed under Homo sapiens [4], 0.2; in the test listed under Homo sapiens [5], 10.2.
On the same counts, the results for `COc1cc2c(cc1OC(C)C)C[C@H]1c3c(cc(OC)c(OC)c3-2)CCN1C` are 45 nM, 559 nM, 1.3, 0.1 and 16.7.
On the same counts, the results for `COc1cc2c(cc1OCCF)C[C@H]1c3c(cc(OC)c(OC)c3-2)CCN1C` are 48 nM, 542 nM, 2.1, 0.1 and 24.1.
In the case of `Cc1nc2sccn2c(=O)c1CCN1CCC(=C(c2ccc(F)cc2)c2ccc(F)cc2)CC1` [RITANSERIN], in test [2], the Ki worked out at 0.8 nM.
`CCCCCCOc1cc2c(cc1OC)-c1c(OC)c(OC)cc3c1[C@H](C2)N(C)CC3`: the Ki in test [1] is 53 nM; in test [2], 614 nM. Moreover, the values for the Ratio Ki (in test [3]; in the test filed under Homo sapiens [4]; in the test listed under Homo sapiens [5]) were 0.9, 0.1 and 10.8, respectively.
On the same counts, the results for `CCCCC(C)Oc1cc2c(cc1OC)-c1c(OC)c(OC)cc3c1[C@H](C2)N(C)CC3` (stereo not given in full) are 33 nM, 274 nM, 1.6, 0.1 and 13.5.
On the same counts, the results for `C=CCOc1cc2c(cc1OC)-c1c(OC)c(OC)cc3c1[C@H](C2)N(C)CC3` are 55 nM, 543 nM, 0.7, 0.1 and 7.
Regarding `COc1cc2c(cc1OC)-c1c(OC)c(OCCF)cc3c1[C@H](C2)N(C)CC3`, the figures for the inhibition constant (Ki) in test [1] and in test [2] were 629 nM and 1130 nM, respectively. The Ratio Ki in the test listed under Homo sapiens [4] amounted to 0.6.
Turning to `Cn1ccc2cc3c(cc21)CCN3C(=O)Nc1cccnc1`, in test [1], the inhibitory constant (Ki) came to 20 nM.
For the molecule `COc1cc2c(cc1OC)-c1c(OC)c(OC)cc3c1[C@H](C2)N(C)CC3` [GLAUCINE], the figures for the inhibition constant Ki in test [1] and in test [2] were 119 nM and 328 nM, respectively. Moreover, the Ratio Ki in test [3] was determined as 2.9; in the test listed under Homo sapiens [4], 0.4; in the test filed under Homo sapiens [5], 8.1.
On the same counts, the results for `CCCCCOc1cc2c(cc1OC)-c1c(OC)c(OC)cc3c1[C@H](C2)N(C)CC3` are 57 nM, 504 nM, 0.5, 0.1 and 4.2.

The values above are taken from ChEMBL document CHEMBL5137112, “Semisynthetic Transformations on (+)-Boldine Reveal a 5-HT2A/2CR Antagonist” (J Nat Prod, 2022).
